Patent publication US8481576B2 (Abbott GmbH & Co. KG, priority 2004, dated 2013)
pKi: −log10 of the molar value. Counter-ions that a name gives are not always drawn.

Target: T1, h5-HT5A receptor (Homo sapiens, UniProt P47898)
T1 construct: expressed in transfected cells; host or cells: HEK293
Assay: [3H]5-CT binding assay h5-HT5A
Conditions: membranes from HEK293 cells expressing h5-HT5A, 2.5 nM [3H]5-CT; read-out: Binding affinity 5-HT5A (Ki)
Outline: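 Membranes from HEK293 cells stably expressing h5-HT5A incubated with 2.5 nM [3H]5-CT and compound in 100 mM Tris-HCl pH 7.7, 1 mM EDTA, 75 min at 30° C. Nonspecific binding with 10 μM methiothepine; filtration and scintillation counting give Ki or IC50.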

T1 sequence (P47898 whole entry): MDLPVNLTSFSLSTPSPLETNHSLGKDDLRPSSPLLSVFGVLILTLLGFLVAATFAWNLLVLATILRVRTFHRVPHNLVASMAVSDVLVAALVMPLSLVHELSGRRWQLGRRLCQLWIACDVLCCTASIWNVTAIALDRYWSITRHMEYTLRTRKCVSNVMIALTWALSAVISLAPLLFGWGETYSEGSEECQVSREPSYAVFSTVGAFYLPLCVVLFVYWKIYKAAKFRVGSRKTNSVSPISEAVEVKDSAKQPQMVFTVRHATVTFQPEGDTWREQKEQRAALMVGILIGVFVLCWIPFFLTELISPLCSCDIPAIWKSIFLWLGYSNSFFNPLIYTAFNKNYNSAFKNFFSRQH

Compound | pKi
COc1cccc(CNC(=N)Nc2nccs2)c1 [Example 14, N-(3-methoxybenzyl)-N′-1,3-thiazole-2-ylguanidine hydrochloride] | 6.30 to 7.30
COc1cccc(OC)c1CNC(=N)Nc1cc(-c2ccc(C)cc2)[nH]n1 [Example 207, N-(2,6-dimethoxybenzyl)-N′-[5-(4-methylphenyl)-1H-pyrazole-3-yl]guanidine] | > 7.30
CCNC(=Nc1nccs1)NCc1ccccc1OC [Example 26, N-ethyl-N′-(2-methoxybenzyl)-N″-1,3-thiazole-2-ylguanidine (2E)-But-2-endioate] | < 6.30
COc1ccccc1CNC(=N)Nc1nc(C(C)(C)C)cs1 [Example 37, N-(4-tert-butyl-1,3-thiazole-2-yl)-N′-(2-methoxybenzyl)guanidine (2E)-But-2-endioate] | 6.30 to 7.30
COc1cccc(C)c1CNC(=N)Nc1nc(-c2ccc(F)cc2)cs1 [Example 138, N-[4-(4-fluorophenyl)-1,3-thiazole-2-yl]-N′-(2-methoxy-6-methylbenzyl)guanidine] | > 7.30
COc1cccc(OC)c1CNC(=N)Nc1ccn(-c2ccccc2)n1 [Example 219, N-(2,6-dimethoxybenzyl)-N′-(1-phenyl-1H-pyrazole-3-yl)guanidine] | > 7.30
COc1ccc(-c2cc(NC(=N)NCc3ccccc3OC)n[nH]2)cc1 [Example 208, N-(2-methoxybenzyl)-N′-[5-(4-methoxyphenyl)-1H-pyrazole-3-yl]guanidine] | > 7.30
COc1ccccc1CNC(=N)Nc1nc2ccccc2n1C [Example 92, N-(2-methoxybenzyl)-N′-(1-methyl-1H-benzimidazole-2-yl)guanidine] | 6.30 to 7.30
COc1cccc(OC)c1CNC(=N)Nc1n[nH]c2ccccc12 [Example 180, N-(2,6-dimethoxybenzyl)-N′-1H-indazole-3-ylguanidine acetate] | > 7.30
COc1cccc(OC)c1CNC(=N)Nc1cc(C(C)(C)C)[nH]n1 [Example 204, N-(5-tert-butyl-1H-pyrazole-3-yl)-N′-(2,6-dimethoxybenzyl)guanidine] | > 7.30
COc1cccc(Cl)c1CNC(=N)Nc1nc(-c2ncc(F)cc2F)cs1 [Example 152, N-(2-chloro-6-methoxybenzyl)-N′-[4-(3,5-difluoropyridine-2-yl)-1,3-thiazole-2-yl]guanidine] | > 7.30
COc1ccc(F)cc1CNC(=N)Nc1nc(-c2ccccc2)cs1 [Example 129, N-(5-fluoro-2-methoxybenzyl)-N′-(4-phenyl-1,3-thiazole-2-yl)guanidine] | 6.30 to 7.30
COc1ccccc1CNC(=N)Nc1nc(-c2cccnc2)cs1 [Example 48, N-(2-methoxybenzyl)-N′-(4-pyridine-3-yl-1,3-thiazole-2-yl)guanidine] | 6.30 to 7.30
COc1cccc(OC)c1CNC(=N)Nc1nc(-c2ccc(F)c3ccccc23)cs1 [Example 114, N-(2,6-dimethoxybenzyl)-N′-[4-(4-fluoro-1-naphthyl)-1,3-thiazole-2-yl]guanidine] | > 7.30
N-(2-methoxybenzyl)-N′-1,3-thiazole-2-ylguanidine hydrochloride [Example 11] | 6.30 to 7.30
COc1ccccc1CNC(=N)Nc1nnc(-c2ccccc2)s1 [Example 175, N-(2-methoxybenzyl)-N′-(5-phenyl-1,3,4-thiadiazole-2-yl)guanidine acetate] | < 6.30
COc1ccc(-c2cc(NC(=N)NCc3c(OC)cccc3OC)n[nH]2)cc1 [Example 209, N-(2,6-dimethoxybenzyl)-N′-[5-(4-methoxyphenyl)-1H-pyrazole-3-yl]guanidine] | > 7.30
COc1ccccc1CNC(=N)Nc1nc(C)c(C)s1 [Example 40] | > 7.30
COc1cccc(OC)c1CNC(=N)Nc1ncc(-c2ccccc2)s1 [Example 66, N-(2,6-dimethoxybenzyl)-M-(5-phenyl-1,3-thiazole-2-yl)guanidine hydrobromide] | > 7.30
COc1cccc(OC)c1CNC(=N)Nc1nnc[nH]1 [Example 189, N-(2,6-Dimethoxybenzyl)-N′-4H-1,2,4-triazole-3-ylguanidine acetate] | > 7.30
COc1ccccc1CNC(=N)Nc1cc(-c2ccccc2)[nH]n1 [Example 201, N-(2-methoxybenzyl)-N′-(5-phenyl-1H-pyrazole-3-yl)guanidine] | > 7.30
COc1cccc(OC)c1CNC(=N)Nc1ncc(-c2ccc(F)cc2)s1 [Example 128, N-(2,6-dimethoxybenzyl)-N′-[5-(4-fluorophenyl)-1,3-thiazole-2-yl]guanidine] | > 7.30
2-(2-{[[(2,6-dimethoxybenzyl)amino](imino)methyl]amino}-1,3-thiazole-4-yl)-N-(2-methoxybenzyl)acetamide (2E)-But-2-endioate [Example 51] | > 7.30
COC(=O)c1sc(NC(=N)NCc2c(OC)cccc2OC)nc1-c1ccc(F)cc1 [Example 160, Methyl-2-{[[(2,6-dimethoxybenzyl)amino](imino)methyl]amino}-4-(4-fluorophenyl)-1,3-thiazole-5-carboxylate] | > 7.30
COc1cccc(OC)c1CNC(=N)Nc1nc(CNC(=O)c2ccccc2)cs1 [Example 155, N-[(2-{[[(2,6-dimethoxybenzyl)amino](imino)methyl]amino}-1,3-thiazole-4-yl)methyl]benzamide] | > 7.30
COc1cccc(C)c1CNC(=N)Nc1cc(C(C)(C)C)[nH]n1 [Example 216, N-(5-tert-butyl-1H-pyrazole-3-yl)-N′-(2-methoxy-6-methylbenzyl)guanidine] | > 7.30
COc1ccc(CNC(=N)Nc2nccs2)cc1 [Example 15, N-(4-methoxybenzyl)-N′-1,3-thiazole-2-ylguanidine] | < 6.30
COc1ccccc1CNC(=N)Nc1nc(C(F)(F)F)cs1 [Example 52, N-(2-methoxybenzyl)-N′-[4-(trifluoromethyl)-1,3-thiazole-2-yl]guanidine (2E)-But-2-endioate] | < 6.30

The next lines start with the values.

pKi | Compound
> 7.30 | COc1cccc(OC)c1CNC(=N)Nc1nc(-c2cc(F)cc(F)c2)cs1 [Example 68, N-[4-(3,5-difluorophenyl)-1,3-thiazole-2-yl]-N′-(2,6-dimethoxybenzyl)guanidine hydrobromide]
> 7.30 | COc1cccc(OC)c1CNC(=N)Nc1nc(-c2ccccn2)cs1 [Example 42, N-(2,6-dimethoxybenzyl)-N′-(4-pyridine-2-yl-1,3-thiazole-2-yl)guanidine (2E)-But-2-endioate]
> 7.30 | COc1cccc(OC)c1CNC(=N)Nc1nc2c(s1)CN(C(C)=O)CC2 [Example 224, N-(5-acetyl-4,5,6,7-tetrahydro[1,3]thiazolo[5,4-c]pyridine-2-yl)-N′-(2,6-dimethoxybenzyl)guanidine]
> 7.30 | COc1cccc(OC)c1CNC(=N)Nc1nc(-c2ccc3c(c2)OCO3)cs1 [Example 69, N-[4-(1,3-benzodioxol-5-yl)-1,3-thiazole-2-yl]-N′-(2,6-dimethoxybenzyl)guanidine hydrobromide]
> 7.30 | COc1cccc(OC)c1CNC(=N)Nc1nc(CNC(=O)OC(C)(C)C)cs1 [Example 125, tert-butyl [(2-{[[(2,6-dimethoxybenzyl)amino](imino)methyl]amino}-1,3-thiazole-4-yl)methyl]carbamate]
> 7.30 | COc1cccc(OC)c1CNC(=N)Nc1nc(C)co1 [Example 190, N-(2,6-dimethoxybenzyl)-N′-(4-methyl-1,3-oxazole-2-yl)guanidine acetate]
> 7.30 | COc1cccc(OC)c1CNC(=N)Nc1nc(-c2cc(C)cs2)cs1 [Example 121, N-(2,6-dimethoxybenzyl)-N′-[4-(4-methyl-2-thienyl)-1,3-thiazole-2-yl]guanidine]
> 7.30 | COc1cccc(OC)c1CNC(=N)Nc1nc2cc(C)c(C)cc2s1 [Example 172, N-(2,6-dimethoxybenzyl)-N′-(5,6-dimethyl-1,3-benzothiazole-2-yl)guanidine fumarate]
> 7.30 | COc1cccc(OC)c1CNC(=N)Nc1nc2c(s1)CCCC2 [Example 94, N-(2,6-dimethoxybenzyl)-N′-(4,5,6,7-tetrahydro-1,3-benzothiazole-2-yl)guanidine acetate]
> 7.30 | COC(=O)NCc1csc(NC(=N)NCc2c(OC)cccc2OC)n1 [Example 159, Methyl[(2-{[[(2,6-dimethoxybenzyl)amino](imino)methyl]amino}-1,3-thiazole-4-yl)methyl]carbamate]
> 7.30 | COc1cccc(F)c1CNC(=N)Nc1nc(C)cs1 [Example 86, N-(2-fluoro-6-methoxybenzyl)-N′-(4-methyl-1,3-thiazole-2-yl)guanidine]
> 7.30 | COc1cccc(OC)c1CNC(=N)Nc1nc(C)cs1 [Example 32, N-(2,6-dimethoxybenzyl)-N′-(4-methyl-1,3-thiazole-2-yl)guanidine]
6.30 to 7.30 | CCN(CC)c1ccc(-c2csc(NC(=N)NCc3c(OC)cccc3OC)n2)cc1 [Example 62, N-{4-[4-(diethylamino)phenyl]-1,3-thiazole-2-yl}-N′-(2,6-dimethoxybenzyl)guanidine]
> 7.30 | COc1cccc(OC)c1CNC(=N)Nc1nc(C2CCNCC2)cs1 [Example 162, N-(2,6-dimethoxybenzyl)-N′-(4-piperidine-4-yl-1,3-thiazole-2-yl)guanidine hydrochloride]
6.30 to 7.30 | COc1cccc(OC)c1CNC(=N)Nc1nc(C2CCCN2C(C)C)cs1 (stereo not drawn) [Example 156, N-(2,6-dimethoxybenzyl)-N′-[4-(1-isopropylpyrrolidine-2-yl)-1,3-thiazole-2-yl]guanidine]
> 7.30 | COc1cccc(OC)c1CNC(=N)Nc1nc(-c2ncc(Cl)cc2Cl)cs1 [Example 126, N-[4-(3,5-dichloropyridine-2-yl)-1,3-thiazole-2-yl]-N′-(2,6-dimethoxybenzyl)guanidine]
> 7.30 | COc1cccc(OC)c1CNC(=N)Nc1nc(-c2ccccc2Cl)cs1 [Example 44, N-[4-(2-chlorophenyl)-1,3-thiazole-2-yl]-N′-(2,6-dimethoxybenzyl)guanidine]
